From paper PMC4783402 (Frontiers in Microbiology, 2016) come the findings set out here.

Series [1] deals with L. pneumophila/A. hydrophila biofilm. Type of series: cell-based, Legionella pneumophila 155 / Aeromonas hydrophila. The conditions noted are these: 0.1 mM polyamino-phenolic ligand, 3-day-old biofilm treated 3 days.
For series [2], the system named is L. pneumophila biofilm. Type of series: cell-based, Legionella pneumophila 155. Conditions: 0.1 mM polyamino-phenolic ligand, 3-day-old biofilm treated 3 days, tap water, 37°C.
Series [3] has as its system L. pneumophila/K. pneumonia biofilm. Type of series: cell-based, Legionella pneumophila 155 / Klebsiella pneumoniae. The conditions noted are these: 0.1 mM polyamino-phenolic ligand, 3-day-old biofilm treated 3 days.
For another series, the system named is planktonic K. pneumoniae. Type of series: cell-based, Klebsiella pneumoniae.
Series [4] relates to planktonic L. pneumophila. Type of series: cell-based, Legionella pneumophila. Conditions: 0.1 mM polyamino-phenolic ligand, 24 h, PBS, 37°C.
The test system of a further series is planktonic E. coli. Type of series: cell-based, Escherichia coli.
For another series, the system named is planktonic A. hydrophila. Type of series: cell-based, Aeromonas hydrophila.
In series [5] the test system is L. pneumophila/K. pneumoniae biofilm. Type of series: cell-based, Legionella pneumophila 155 / Klebsiella pneumoniae. Conditions: 0.1 mM polyamino-phenolic ligand added at inoculum, 3-day contact time.
In series [6] the test system is L. pneumophila/P. aeruginosa biofilm. Type of series: cell-based, Legionella pneumophila 155 / Pseudomonas aeruginosa. The conditions noted are these: 0.1 mM polyamino-phenolic ligand added at inoculum, 3-day contact time.
Series [7] has as its system five-species biofilm (L. pneumophila/P. aeruginosa/A. hydrophila/E. coli/K. pneumoniae). Type of series: cell-based. The conditions noted are these: 0.1 mM polyamino-phenolic ligand added at inoculum, 3-day contact time.
A further series relates to planktonic P. aeruginosa. Type of series: cell-based, Pseudomonas aeruginosa.
A further series in a line: in vitro. The conditions noted are these: human.
The subject of series [8] is L. pneumophila/E. coli biofilm. Type of series: cell-based, Legionella pneumophila 155 / Escherichia coli. Conditions: 0.1 mM polyamino-phenolic ligand, 3-day-old biofilm treated 3 days.
For series [9], the system named is L. pneumophila/E. coli biofilm. Type of series: cell-based, Legionella pneumophila 155 / Escherichia coli. The conditions noted are these: 0.1 mM polyamino-phenolic ligand added at inoculum, 3-day contact time.
In series [10] the test system is L. pneumophila biofilm. Type of series: cell-based, Legionella pneumophila 155. The conditions noted are these: 0.1 mM polyamino-phenolic ligand added at inoculum, 3-day contact time.
In series [11] the test system is L. pneumophila/A. hydrophila biofilm. Type of series: cell-based, Legionella pneumophila 155 / Aeromonas hydrophila. The conditions noted are these: 0.1 mM polyamino-phenolic ligand added at inoculum, 3-day contact time.

Turning to `NCCN1CCNCc2cccc(c2O)CNCC1` [Macrophen, 2-(3,6,9-triaza-15-hydroxybicyclo(9.3.1)pentadeca-11,13,1^15-trien-6-yl)ethylamine], the “biofilm reduction (degradation)” value is recorded as 33% in [1], 27% in the series with L. pneumophila biofilm [2] and 33% in series [3]. Further, the “effect on number of viable planktonic cells” value (in the series with planktonic K. pneumoniae; in series [4]; in the series with planktonic E. coli; in the series on planktonic A. hydrophila; with planktonic P. aeruginosa) was “did not reduce the number of viable cells” throughout. The biofilm formation inhibition in series [5] is recorded as 24%; in series [6], 26%; in [7], 27%.
As a reminder, the viability is the share of living cells, or the viability signal relative to a control. Regarding `NCCN(CCN)Cc1cc(-c2ccc(O)c(CN(CCN)CCN)c2)ccc1O` [Dimo, 3,3′-bis(N,N-bis(2-aminoethyl)aminomethyl)-4,4′-dihydroxybiphenyl], the “biofilm reduction (degradation)” value with L. pneumophila biofilm [2] was 27%. Moreover, the viability in “in vitro” came to 58%.
Turning to `NCCN(CCN)Cc1cccc(-c2cccc(CN(CCN)CCN)c2O)c1O` [Bfden, 3,3′-bis(N,N-bis(2-aminoethyl)aminomethyl)-2,2′-dihydroxybiphenyl], the viability in “in vitro” was 97%.
Consider `Oc1c2cccc1CNCCN(CCNCCCNCCNCCCNCCN1CCNCc3cccc(c3O)CNCC1)CCNC2` [Double Macrophen, 1,16-bis(3,6,9-triaza-15-hydroxybicyclo(9.3.1)pentadeca-11,13,1^15-trien-6-yl)-3,7,10,14-tetraazahexadecane], for which the figures for the “biofilm reduction (degradation)” value (in series [8]; in the series with L. pneumophila biofilm [2]) were 39% and 32%, respectively. Also, the “effect on number of viable planktonic cells” value (with planktonic K. pneumoniae; in [4]; with planktonic E. coli; with planktonic A. hydrophila; in the series on planktonic P. aeruginosa) was “did not reduce the number of viable cells” in each case. Also, in “in vitro”, the viability was found to be 95%. Moreover, the figures for the biofilm formation inhibition (in series [9]; in the series on L. pneumophila biofilm [10]; in series [11]) were 42%, 48% and 34%, respectively.
`NCCNCCNCc1cc(-c2ccc(O)c(CNCCNCCN)c2)ccc1O` [Bisom, 3,3′-bis(N-(N-(2-aminoethyl)-2-aminoethyl)aminomethyl)-4,4′-dihydroxybiphenyl] displayed a viability in the series “in vitro” of 72%.
